Results as given in patent US9936699B2, “Halogen-substituted compounds” (BAYER CROPSCIENCE AKTIENGESELLSCHAFT, priority 2014, dated 2018).

Assays:
[1] = logP determination by HPLC on reversed-phase column (C18), EEC Directive 79/831 Annex V.A8; assay type: physicochemical; conditions: reversed-phase C18, acetonitrile/water with formic acid; for chromatographic logP: reversed-phase C18 HPLC column
[2] = test system: adult engorged female ticks (Boophilus microplus); test: Boophilus microplus injection test (BOOPMI Inj); assay type: in vivo; conditions: 20 μg/animal, egg deposition after 7 days
Protocol: Boophilus microplus—Injectiontest (BOOPMI Inj)
(§1) Solvent: dimethyl sulfoxide
Five adult engorged female ticks (Boophilus microplus) are injected with 1 μl compound solution into the abdomen. The ticks are transferred into replica plates and incubated in a climate chamber.
(§2) After 7 days egg deposition of fertile eggs is monitored. Eggs where fertility is not visible are stored in a climate chamber till hatching after about 42 days. An efficacy of 100% means all eggs are infertile; 0% means all eggs are fertile.

[3] = test system: adult house flies (Musca domestica); test: Musca domestica test (MUSCDO); assay type: in vivo; conditions: 100 ppm, after 2 days
Excerpt: Musca domestica—Test (MUSCDO)
as §1
10 adult house flies (Musca domestica) are transferred into a container, containing a sponge soaked with a mixture of sugar solution and compound solution of the desired concentration.

[4] = test system: green peach aphid (Myzus persicae); test: Myzus persicae spray test (Chinese cabbage leaf disks); assay type: in vivo; conditions: 20 g/ha, after 6 days
Protocol: Myzus persicae—Spray Test
(§3) Solvent: 78.0 parts by weight acetone
(§4) • 1.5 parts by weight dimethylformamide Emulsifier: alkylarylpolyglycol ether
Chinese cabbage (Brassica pekinensis) leaf disks infected with all instars of the green peach aphid (Myzus persicae), are sprayed with a preparation of the active ingredient of the desired concentration.
(§5) After 6 days mortality in % is determined.

[5] = test system: adult cat fleas (Ctenocephalides felis); test: Ctenocephalides felis in-vitro contact test, adult cat flea; assay type: in vivo; conditions: 5 μg/cm^2 (=500 g/ha), after 48 hours
Protocol: Ctenocephalides felis—In-Vitro Contact Tests Adult Cat Flea
(§6) 9 mg compound is solved in 1 ml acetone and diluted with acetone to the desired concentration. 250 μl of the test solution is filled in 25 ml glass test tubes and homogeneously distributed on the inner walls by rotation and tilting on a shaking device (2 h at 30 rpm). With a compound concentration of 900 ppm, an inner surface of 44.7 cm^2 and a homogeneous distribution, a dose of 5 μg/cm^2 is achieved.
(§7) After the solvent has evaporated, each test tube is filled with 5-10 adult cat fleas (Ctenocephalides felis), closed with a perforated lid and incubated in a lying position at room temperature and relative humidity. After 48 hours efficacy is determined. The fleas are patted on the ground of the tubes and are incubated on a heating plate at 45-50° C. for at most 5 minutes. Immotile or uncoordinated moving fleas, which are not able to escape the heat by climbing upwards, are marked as dead or moribund.
An efficacy of 100% means all fleas are dead or moribund; 0% means no fleas are dead or moribund.

[6] = test system: Tick nymphs (Amblyomma hebraeum); test: Amblyomma hebraeum test (AMBYHE); assay type: in vivo; conditions: 100 ppm, after 42 days
Protocol: Amblyomma hebraeum—Test (AMBYHE)
as §1
Tick nymphs (Amblyomma hebraeum) are placed in perforated plastic beakers and immersed in the aqueous compound solution for one minute. Ticks are transferred to a filter paper in a petridish and incubated in a climate chamber.

[7] = test system: cattle ticks (Boophilus microplus) strane Parhurst, SP-resistant; test: Boophilus microplus dip test (BOOPMI Dip); assay type: in vivo; conditions: 100 ppm, egg deposition after 7 days
Excerpt: Boophilus microplus—Diptest (BOOPMI Dip)
Test animal: cattle ticks (Boophilus microplus) strane Parhurst, SP-resistant
as §1
This compound solution is pipetted into tubes. 8-10 engorged, adult, female cattle ticks (Boophilus microplus) are placed in perforated tubes. These tubes are immersed in the aqueous compound solution until the ticks are completely moistened. After the liquid has drained off, the ticks are transferred to a filter paper in a plastic tray and stored in a climate chamber.
as §2

[8] = test system: fall armyworm larvae (Spodoptera frugiperda); test: Spodoptera frugiperda spray test (maize leaf sections); assay type: in vivo; conditions: 100 g/ha, after 7 days
Excerpt: Spodoptera frugiperda—Spray Test
as §3, §4
Maize (Zea mays) leaf sections are sprayed with a preparation of the active ingredient of the desired concentration. Once dry, the leaf sections are infested with fall armyworm larvae (Spodoptera frugiperda).

[9] = test system: adult brown dog ticks (Rhipicephalus sanguineus); test: Rhipicephalus sanguineus in-vitro contact test with adult brown dog ticks; assay type: in vivo; conditions: 5 μg/cm^2 (=500 g/ha), after 48 hours
Protocol: Rhipicephalus sanguineus—In-Vitro Contact Tests with Adult Brown Doe Ticks
as §6
as §7, with “brown dog ticks (Rhipicephalus sanguineus),” for “cat fleas (Ctenocephalides felis),”, “ticks” for “fleas”, “ticks,” for “fleas,”
An efficacy of 100% means all ticks are dead or moribund; 0% means no ticks are dead or moribund.

[10] = test system: two-spotted spider mite (Tetranychus urticae); test: Tetranychus urticae spray test; OP-resistant (bean plants); assay type: in vivo; conditions: after 7 days
[11] = test system: two spotted spidermite (Tetranychus urticae); test: Tetranychus urticae spray test OP-resistant (French bean leaf disks); assay type: in vivo; conditions: 100 g/ha, after 6 days
Protocol: Tetranychus urticae—Spray Test OP-Resistant
as §3, §4
French bean (Phaseolus vulgaris) leaf disks which are heavily infested with all stages of the two spotted spidermite (Tetranychus urticae) are sprayed with a preparation of the active ingredient of the desired concentration.
as §5

[12] = test system: green peach aphid (Myzus persicae); test: Myzus persicae spray test (pepper leaves); assay type: in vivo; conditions: after 6 days
[13] = test system: larvae of the Australian sheep blowfly (Lucilia cuprina); test: Lucilia cuprina test (LUCICU); assay type: in vivo; conditions: 100 ppm, after 2 days
Protocol: Lucilia cuprina—Test (LUCICU)
as §1
10 mg active compound are dissolved in 0.5 ml Dimethylsulfoxid. Serial dilutions are made to obtain the desired rates.
Approximately 20 […] instar larvae of the Australian sheep blowfly (Lucilia cuprina) are transferred into a test tube containing minced horse meat and compound solution of the desired concentration.

Structure (SMILES) | logP [1] | efficacy (infertile eggs) [2] | mortality in % [3] | also measured
Cc1ncc(-c2cnn(-c3c([S+](C)[O-])c(C(F)(F)C(F)(F)F)nn3C)c2)cc1C(=O)NC1(C#N)CC1 (centres unmarked) [Example I-10] | 1.99 | – | – | –
Cn1nc(C(F)(F)C(F)(F)F)c(S(C)(=O)=O)c1-n1cc(-c2ccc(Cl)c(C(=O)NC3(C#N)CC3)c2)cn1 [Example I-04] | 2.77 | 100% | 100% | –
Cc1ccc(-c2cnn(-c3c(S(C)(=O)=O)c(C(F)(F)C(F)(F)F)nn3C)c2)cc1C(=O)NC1(C#N)CC1 [Example I-23] | 2.79 | 100% | – | mortality in % [4]: 100%
Cn1nc(C(F)(F)C(F)(F)F)c(S(C)(=O)=O)c1-n1cc(-c2ccc(Cl)c(C(=O)NC3CC3)c2)cn1 [Example I-07] | 2.78 | 100% | 100% | efficacy (fleas dead or moribund) [5]: 100%; mortality in % [6]: 100%; efficacy (infertile eggs) [7]: 100%; mortality in % [8]: 100%
Cn1nc(C(F)(F)C(F)(F)F)c([S+](C)[O-])c1-n1cc(-c2ccc(Cl)c(C(=O)NC3(C#N)CC3)c2)cn1 (single isomer, unassigned) [Example I-08] | 2.59 | – | – | –
Cn1nc(C(F)(F)C(F)(F)F)c([S+](C)[O-])c1-n1cc(-c2ccc(Cl)c(C(=O)NC3(C#N)CC3)c2)cn1 (single isomer, unassigned) [Example I-21] | 2.59 | – | – | –
Cn1nc(C(F)(F)C(F)(F)F)c([S+](C)[O-])c1-n1cc(-c2ccc(Cl)c(C(=O)NC3(C#N)CC3)c2)cn1 (racemic) [Example I-03] | 2.61 | 100% | 100% | efficacy (fleas dead or moribund) [5]: 100%
Cn1nc(C(F)(F)C(F)(F)F)c(N)c1-n1cc(Br)cn1 [Example 14, 4-bromo-2′-methyl-5′-(pentafluoroethyl)-2′H-1,3′-bipyrazol-4′-amine] | – | – | – | chromatographic logP [1]: 2.68
CCSc1c(C(F)(F)C(F)(F)F)nn(C)c1-n1cc(-c2ccc(Cl)c(C(=O)NC3(C#N)CC3)c2)cn1 [Example I-15] | 3.76 | 100% | 90% | efficacy (fleas dead or moribund) [5]: 100%; efficacy (ticks dead or moribund) [9]: 100%; mortality in % [6]: 100%; efficacy (infertile eggs) [7]: 100%; mortality in % [8]: 100%
Cc1ccc(-c2cnn(-c3c([S+](C)[O-])c(C(F)(F)C(F)(F)F)nn3C)c2)cc1C(=O)NC1(C#N)CC1 (centres unmarked) [Example I-24] | 2.57 | 100% | – | –
CC[S+]([O-])c1c(C(F)(F)C(F)(F)F)nn(C)c1-n1cc(-c2ccc(Cl)c(C(=O)NC3CC3)c2)cn1 (centres unmarked) [Example I-22] | 2.88 | – | – | –
CCSc1c(C(F)(F)C(F)(F)F)nn(C)c1-n1cc(-c2ccc(Cl)c(C(=O)NC3CC3)c2)cn1 [Example I-11] | 3.85 | 100% | 100% | mortality in % [6]: 100%; efficacy (infertile eggs) [7]: 100%; mortality in % [8]: 100%
Cn1nc(C(F)(F)F)c([S+](C)[O-])c1-n1cc(-c2ccc(Cl)c(C(=O)NC3(C#N)CC3)c2)cn1 (centres unmarked) [Example I-01] | 2.16 | – | – | mortality in % ([10]; 20 ppm): 100%
CSc1c(C(F)(F)C(F)(F)F)nn(C)c1-n1cc(-c2ccc(Cl)c(C(=O)NC3CC3)c2)cn1 [Example I-12] | 3.65 | 100% | 100% | efficacy (fleas dead or moribund) [5]: 100%; efficacy (ticks dead or moribund) [9]: 100%; efficacy (infertile eggs) [7]: 100%; mortality in % [8]: 100%
Cn1nc(C(F)(F)C(F)(F)F)c([S+](C)[O-])c1-n1cc(-c2ccc(Cl)c(C(=O)NC3CC3)c2)cn1 (centres unmarked) [Example I-06] | 2.60 | 100% | 100% | efficacy (fleas dead or moribund) [5]: 100%; mortality in % [8]: 100%; mortality in % [11]: 90%; mortality in % ([12]; 20 ppm): 99%; mortality in % ([10]; 20 ppm): 90%
CSc1c(C(F)(F)C(F)(F)F)nn(C)c1-n1cc(-c2ccc(C)c(C(=O)NC3CC3)c2)cn1 [Example I-17] | 3.64 | – | – | –
Cn1nc(C(F)(F)C(F)(F)F)c([S+](C)[O-])c1-n1cc(-c2cnc(Cl)c(C(=O)NC3(C#N)CC3)c2)cn1 (centres unmarked) [Example I-20] | 2.23 | 100% | 90% | mortality in % ([12]; 4 ppm): 95%
CSc1c(C(F)(F)C(F)(F)F)nn(C)c1-n1cc(Br)cn1 [Example 15, 4-bromo-2′-methyl-4′-(methylsulfanyl)-5′-(pentafluoroethyl)-2′H-1,3′-bipyrazole] | – | – | – | chromatographic logP [1]: 3.95
Cc1ccc(-c2cnn(-c3c([S+](C)[O-])c(C(F)(F)C(F)(F)F)nn3C)c2)cc1C(=O)NC1CC1 (centres unmarked) [Example I-18] | 2.57 | 100% | – | efficacy (fleas dead or moribund) [5]: 100%; efficacy (ticks dead or moribund) [9]: 80%
CSc1c(C(F)(F)C(F)(F)F)nn(C)c1-n1cc(-c2ccc(C)c(C(=O)NC3(C#N)CC3)c2)cn1 [Example I-16] | 3.55 | – | – | –
CC[S+]([O-])c1c(C(F)(F)C(F)(F)F)nn(C)c1-n1cc(-c2ccc(Cl)c(C(=O)NC3(C#N)CC3)c2)cn1 (centres unmarked) [Example I-25] | 2.84 | – | – | mortality in % ([10]; 4 ppm): 95%
Cn1nc(C(F)(F)F)c(S(C)(=O)=O)c1-n1cc(-c2ccc(Cl)c(C(=O)NC3CC3)c2)cn1 [Example I-05] | 2.34 | 100% | – | mortality in % [13]: 90%; mortality in % ([12]; 20 ppm): 100%
CSc1c(C(F)(F)C(F)(F)F)nn(C)c1-n1cc(-c2cnc(Cl)c(C(=O)N(C)C3CC3)c2)cn1 [Example I-19] | 3.67 | – | – | –
Cc1ncc(-c2cnn(-c3c([S+](C)[O-])c(C(F)(F)C(F)(F)F)nn3C)c2)cc1C(=O)NC1CC1 (centres unmarked) [Example I-14] | 1.85 | – | – | –
Cc1ccc(-c2cnn(-c3c(S(C)(=O)=O)c(C(F)(F)C(F)(F)F)nn3C)c2)cc1C(=O)NC1CC1 [Example I-09] | 2.75 | 100% | 80% | efficacy (fleas dead or moribund) [5]: 100%; efficacy (infertile eggs) [7]: 80%; mortality in % [13]: 90%
